Patent US20090062240A1, “Pharmaceutical combinations containing an inhibitor of platelet aggregation and a fibrate” (Fournier Laboratories Ireland Limited, priority 2004, published 2009)

System: rat platelet aggregation
Assay: Ex-vivo rat platelet aggregation induced by arachidonic acid after oral treatment (Born's method, PRP)
Format: in vivo
Details: for % aggregation upon addition of 1 mM arachidonic acid: rat PRP, mean, n = 8; for reduction in platelet aggregation (in words): 1 mM arachidonic acid
Protocol: A study was carried out to assess the effect of a combination of a fibrate (fenofibrate) and aspirin on platelet aggregation in this study, fenofibrate and aspirin were co-administered to rats by the oral route (p.o.) and the effects on arachidonic acid-induced platelet aggregation were observed.
40 male OFA-SD (IOPS Caw) rats (C.River, France), weighing in the target range of 300 to 350 g, were included in the study.
They were housed in a temperature (19.5-24.5° C.) and relative humidity (45-65%) controlled room with a 12-h light/dark cycle, with ad libitum access to filtered tap-water and standard pelleted laboratory chow (SAFE, France) throughout the study. Upon receipt at animal facilities, they were housed 4 per cage and at least a 5-day acclimatization period was observed. Animals were individually identified on the tail.
The animals of this study were split into 5 groups of 8 animals as follows:
Group 2: Fenofibrate, 300 mg/kg, p.o.×10 days
Group 3 Aspirin 3 mg/kg, p.o.×1 day
Group 4: Fenofibrate, 300 mg/kg, p.o×10 days+Aspirin 3 mg/kg, p.o.×1 day
Group 5: Aspirin 30 mg/kg, p.o.×1 day
At the end of the acclimatization period, rats were identified on the tail and divided into 10 boxes of 4 rats.
They were then weighed and treated orally once a day during ten consecutive days with the vehicle (1% methylcellulose aqueous solution) or the test substance fenofibrate. On the last day of treatment, the animals were also treated with aspirin as described above. Aspirin (acetyl saliclylic acid) was obtained from Sigma, France and fenofibrate was supplied by Laboratoires Fournier, France. Test substances and the vehicle were administered by p.o. route once a day, in a volume of 5 ml/kg adjusted to the animal weight measured every day before administration.
On the last day of treatment (day 10), 2 hours after the oral gavage, rats were anaesthetised with isoflurane, and blood samples were collected from the abdominal aorta into plastic tubes containing heparin.
PRP (platelet-rich plasma) was then produced by centrifuging the blood obtained at 250 g for 10 minutes using a GPKR centrifuge (Beckman, France). Then samples were then centrifuged again at 2000 g for 10 minutes to obtain the platelet-poor plasma (PPP).
After a platelet count, each PRP sample was adjusted to 6×10^8 platelets/mL with the needed volume of homologous PPP (using T540 Cell Counter, Beckman, France).
Platelet aggregation was recorded using Born's method (Born, Nature, 1962, 194, 927-929) with 0.3 mL of the platelet suspension in disposable glass cuvettes placed in the turbidometric aggregometer (Chrono-Dual 440 aggregometer, Beckman Coulter, France) and stirred at 1100 rev.min^−1 at 37° C.
Platelet aggregation was induced by Arachidonic acid [AA] for each PRP sample tested.
Results were reported as the aggregation amplitude measured in mm and expressed as percentage of maximal aggregation.
Statistical analysis consisted in a one-way analysis of variance followed by multiple comparisons versus the vehicle group (Dunnett's test) on % aggregation values. Where the equal variance test failed, a Kruskall-Wallis one-way analysis of variance on ranks was proposed. A difference is considered significant for p<0.05.

CC(C)OC(=O)C(C)(C)Oc1ccc(C(=O)c2ccc(Cl)cc2)cc1 [Fenofibrate, 2-[4-(4-chlorobenzoyl)phenoxy]-2-methyl-propanoic acid, 1-methylethyl ester]
% aggregation upon addition of 1 mM arachidonic acid (Fenofibrate 300 mg/kg p.o. x 10 days, blood 2 h after last gavage): 94.2%
reduction in platelet aggregation (in words) (fenofibrate alone (300 mg/kg)): no reduction in platelet aggregation

CC(=O)Oc1ccccc1C(=O)O [Aspirin, Acetylsalicylic acid]
% aggregation upon addition of 1 mM arachidonic acid (Aspirin 3 mg/kg p.o. x 1 day, blood 2 h after gavage): 85.0%
% aggregation upon addition of 1 mM arachidonic acid (Aspirin 30 mg/kg p.o. x 1 day, p < 0.05 vs Control): 0.4%
reduction in platelet aggregation (in words) (aspirin alone at 3 mg/kg): no reduction in platelet aggregation
